Paper PMC4049535 (Nature communications, 2013)

Legend:
Antigen 85C (Ag85C) [1] = molecular target: T1, Antigen 85C (Ag85C) (Mycobacterium tuberculosis, UniProt P9WQN9); test: resorufin butyrate fluorometric assay dose-dependence; type: biochemical
Antigen 85C (Ag85C) [2] = molecular target: T1, Antigen 85C (Ag85C); test: peptide mass fingerprinting of tryptic peptides; type: biochemical

T1 sequence (P9WQN9 46-340): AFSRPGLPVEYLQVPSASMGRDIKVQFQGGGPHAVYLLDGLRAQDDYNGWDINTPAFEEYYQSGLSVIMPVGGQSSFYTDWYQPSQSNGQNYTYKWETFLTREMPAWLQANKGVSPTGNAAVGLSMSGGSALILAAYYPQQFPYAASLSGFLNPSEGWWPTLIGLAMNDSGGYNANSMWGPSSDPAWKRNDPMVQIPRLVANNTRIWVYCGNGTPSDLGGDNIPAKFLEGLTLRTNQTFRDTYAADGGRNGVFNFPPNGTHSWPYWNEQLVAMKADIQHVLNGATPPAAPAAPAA

Row | SMILES | Ki (Antigen 85C (Ag85C) [1]) [µM] | peptide mass fingerprinting of tryptic peptides (MALDI-MS); activity loss in res (Antigen 85C (Ag85C) [2]) [mM]
1 | O=c1c2ccccc2[se]n1-c1ccccc1 [EBS, ebselen] | 0.063 | 
2 | NC(=O)CI [IAA, iodoacetamide] |  | 51.2
